This assay relates to serum triglyceride levels. As to the kind of experiment: Rabbit hypercholesteremic model (2% cholesterol diet, 7 weeks): serum triglycerides. Type of assay: in vivo, Male New Zealand white rabbits. The following applies: hypercholesterol diet, n = 5, P5P 10 mg/kg/day, simvastatin 5 mg/kg/day oral. The method, then:
The anti-atherogenic effects of P5P alone and in combination with simvastatin in a rabbit hypercholesteremic model were determined. The study compared the effects of P5P and simvastatin alone and in combination on atherosclerotic lesion formation, lipid profile (total cholesterol, LDL, HDL, triglycerides and oxidized LDL), homocysteine levels and various markers of inflammation (CRP, IL-1β, IL-6, IFN-γ and TNF-α).
Animals—Male New Zealand white rabbits 2.0-3.0 kg.
Animal Feed—The normocholesterol diet is Co-op Complete Rabbit Feed manufactured by Federated Co-operatives Limited (Saskatchewan). The 2% cholesterol diet is Test Diet 0009459 MRab/2% Chol 3/16 manufactured by Purina Mills (USA).
The rabbits were fed the normocholesterol and 2% cholesterol diet ad libitum. All animals received a timothy cube after blood sampling. […]
Group 3: Hypercholesterol diet+P5P 10 mg/kg/day
Group 4: Hypercholesterol diet+simvastatin 5 mg/kg/day
Group 5: Hypercholesterol diet+P5P 10 mg/kg/day+simvastatin 5 mg/kg/day
The rabbits were fed a normocholesterol or hypercholesterol diet for a total of 7 weeks. The normocholesterol rabbits were treated once per day with 1 ml of ethanol and 5 ml of RO water via a nasogastric tube. The hypercholesterol animals were treated once per day with either P5P (10 mg/kg), simvastatin (5 mg/kg) or a combination of P5P and simvastatin (P5P 10 mg/kg; simvastatin 5 mg/kg) via a nasogastric tube. The P5P was dissolved in 5 ml of 0.05 N NaOH so that the pH of the solution is approximately 7. The simvastatin was dissolved in 1 ml of anhydrous ethanol.
Five ml of blood was collected from the marginal ear vein of the rabbits at 0, 2, 4 and 6 weeks. Prior to blood collection the animals were sedated with 1 mg/kg of acepromazine. Following collection, the serum was separated. The serum is aliquoted (500 μl) and frozen at −80° C. until used for the assaying various lipids (total cholesterol, LDL, HDL, triglycerides, oxidized LDL) and cytokines (CRP, IL-1β, IL-6, IFN-γ and TNF-α).
At 7 weeks, the animals were anesthetized and 10 ml of blood was collected. Then the animals were euthanized, and the heart and thoracic aorta removed. The hearts and aortas were frozen in liquid nitrogen or an ethanol dry ice bath and stored at −80° C. until analyzed.
Test Articles—P5P (pyridoxal 5′-phosphate monohydrate) was purchased from Sigma (P82870). Simvastatin is obtained from ACIC Fine Chemicals Inc. Two test compound vials were provided for each animal for each day. The first vial (small) was diluted in 1 ml of anhydrous ethanol. The second vial was diluted in either 5 ml of RO water or 5 ml of 0.05 N NaOH. The diluent for each vial was clearly marked on the vial. The test solutions were prepared fresh each day just before they were administered to the animals. The stock P5P was stored in a refrigerator at 4° C. under low light conditions. The simvastatin was stored following the manufacture recommendations. The individual test vials were stored in a refrigerator at 4° C. under low light conditions.
Test Article(s) Dose, Route of Administration and Duration—The rabbits were treated orally with the drugs, once per day for a total of 7 weeks. The contents of vial one (small; 1 ml) were given to the animals first, followed by the contents of vial 2 (large; 5 ml). The test compound treatments were followed by a 5 ml RO water chaser.

Regarding `CCC(C)(C)C(=O)O[C@H]1C[C@@H](C)C=C2C=C[C@H](C)[C@H](CC[C@@H]3C[C@@H](O)CC(=O)O3)[C@H]21` [Simvastatin, simvastatin, reference compound], the “Triglycerides, Week 2” value is on record as 0.986 mmol/L; the “Triglycerides, Week 4” value came to 1.588 mmol/L; the “Triglycerides, Week 6” value was 2.158 mmol/L. Also, where the note is “end of study”, the “Triglycerides, Week 7” value is given as 1.766 mmol/L. Moreover, the “Triglycerides, Week 0” value (start of study) was found to be 0.956 mmol/L.

Values taken from US20060148763A1, “Compounds and methods for regulating triglyceride levels” (priority 2005, published 2006).
